# Reference: patent US12606541B2, “PPARg modulators and methods of use” (Eisai R&D Management Co., Ltd., priority 2020, dated 2026)
# Like-named read-outs stand apart in the source and are kept apart here.
# Legend:
# His6-TEV-PPARγ-(234-505) = biological target: T1, His6-TEV-PPARγ-(234-505) (Homo sapiens, UniProt P37231); assay: TR-FRET Assay to Measure Co-R Peptide Recruitment to PPARγ; format: biochemical; details: Co-R peptide (SMRT-ID2) recruitment, top final concentration 20 μM, read-out: TR-FRET i-Ag, AC50
# T1 construct: The His6-TEV-PPARγ-(234-505) protein for assay was expressed and purified; TEV cleavage site (N); made in house
# T1 sequence (P37231 234-505): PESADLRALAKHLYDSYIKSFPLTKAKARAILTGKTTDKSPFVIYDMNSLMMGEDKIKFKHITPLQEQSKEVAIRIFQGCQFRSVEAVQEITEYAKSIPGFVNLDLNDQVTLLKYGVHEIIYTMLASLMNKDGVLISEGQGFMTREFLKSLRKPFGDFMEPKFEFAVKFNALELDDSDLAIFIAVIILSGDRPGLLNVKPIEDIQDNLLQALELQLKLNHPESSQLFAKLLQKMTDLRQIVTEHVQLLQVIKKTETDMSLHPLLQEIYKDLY
# Summary of the method: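 His-tagged PPARγ (or controls) was preincubated with compound for 20 minutes at room temperature, then 5 nM anti-His terbium antibody and 200 nM FITC-labeled SMRT-ID2 corepressor peptide (final) were added for a further hour. TR-FRET signal was normalized to percent response using 500 nM T0070907 and DMSO controls.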
# UM-UC-9 engineered cells = assay: Cell proliferation / short-term viability assay, CellTiter-Glo 144 h; format: cell-based, human; details: read-out: CTGlo 144 h UMUC9.5, G150
# Summary of the method: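 UM-UC-9 engineered assay-ready cells seeded at 500 cells/well in high-glucose DMEM/10% FBS, treated from dose-response plates, grown at 37° C, 5% CO2. CellTiter-Glo 2.0 luminescence read on day 7, with a day-0 pretreatment plate as T0 reference and DMSO wells as negative control.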
AC50 (His6-TEV-PPARγ-(234-505)) [nM],Compound,"IC50 (UM-UC-9 engineered cells; Homo sapiens, UM-UC-9, 144 h) [nM]",IC50 (UM-UC-9 engineered cells) [nM],AC50 (His6-TEV-PPARγ-(234-505); listed as 114b) [nM],IC50 (UM-UC-9 engineered cells; listed as 114b) [nM]
268,"COc1cc(-c2cc(C(=O)N3CCC(C(=O)Nc4cccc(C(F)F)c4)CC3)n[nH]2)c(Cl)cn1 [Example 147, 1-(5-(5-chloro-2-methoxypyridin-4-yl)-1H-pyrazole-3-carbonyl)-N-(3-(difluoromethyl)phenyl)piperidine-4-carboxamide]",955,–,–,–
24,"COc1cc(-c2cc(C(=O)N3CC[C@H](C(=O)N[C@@H]4CN(c5ccc(C)nc5)C[C@H]4F)CC34CC4)n[nH]2)c(F)cn1 [Example 426, (S)—N-((3R,4R)-4-fluoro-1-(6-methylpyridin-3-yl)pyrrolidin-3-yl)-4-(5-(5-fluoro-2-methoxypyridin-4-yl)-1H-pyrazole-3-carbonyl)-4-azaspiro[2.5]octane-7-carboxamide]",50.9,–,–,–
1500,"COc1cc(-c2cc(C(=O)N3CC[C@H](C(=O)NC4CCC(O)(C(F)(F)F)C(O)C4)CC34CC4)n[nH]2)c(F)cn1 (single isomer, unassigned) [Example 474-E]",–,1930,–,–
889,"COc1cc(-c2cc(C(=O)N3CCC(C(=O)NC4CCN(c5ccccc5)C4=O)CC3)n[nH]2)c(Cl)cn1 (racemic) [Example 207, 1-(5-(5-chloro-2-methoxypyridin-4-yl)-1H-pyrazole-3-carbonyl)-N-(2-oxo-1-phenylpyrrolidin-3-yl)piperidine-4-carboxamide]",5670,–,–,–
696,COc1cc(-c2cc(C(=O)N3CC[C@H](C(=O)NCC4CCS(=N)(=O)C4(C)C)CC34CC4)n[nH]2)c(F)cn1 (mixture of isomers) [Example 372-A],> 10000,–,–,–
897,"COc1cc(-c2cc(C(=O)N3CC[C@H](C(=O)NC4CCC5CCCN5C4)CC34CC4)n[nH]2)c(F)cn1 (single isomer, unassigned) [Example 376-A]",–,1730,–,–
238,"COc1cc(-c2cc(C(=O)N3CCC(C(=O)NCC4(O)CCCCC4)CC3)n[nH]2)c(Cl)cn1 [Example 134, 1-(5-(5-chloro-2-methoxypyridin-4-yl)-1H-pyrazole-3-carbonyl)-N-((1-hydroxycyclohexyl)methyl)piperidine-4-carboxamide]",1090,–,–,–
19,"COc1cc(-c2cc(C(=O)N3CCC(C(=O)NC4CCC(OCC(C)OC)(C(F)(F)F)CC4)CC34CC4)n[nH]2)c(F)cn1 (single isomer, unassigned) [Example 340-B]",–,10.7,–,–
17.4,"COc1cc(-c2cc(C(=O)N3CC[C@H](C(=O)NCc4ncc(C(F)(F)F)[nH]4)CC34CC4)[nH]n2)c(F)cn1 [Example 476, (S)-4-(3-(5-fluoro-2-methoxypyridin-4-yl)-1H-pyrazole-5-carbonyl)-N-((5-(trifluoromethyl)-1H-imidazol-2-yl)methyl)-4-azaspiro[2.5]octane-7-carboxamide]",406,–,–,–
6.9,"Cc1cc(-c2cc(C(=O)N3CCC(C(=O)NC4CCC(O)(C(F)(F)F)CC4)CC34CC4)n[nH]2)ncn1 (single isomer, unassigned) [Example 339-B]",–,19.5,–,–
13.1,"COc1cc(-c2cc(C(=O)N3CC[C@H](C(=O)NC4CCN(CC(F)(F)CO)C4)CC34CC4)n[nH]2)c(F)cn1 (single isomer, unassigned) [Example 459-B]",–,83.4,–,–

# More lines, now with the values behind:
Compound,AC50 (His6-TEV-PPARγ-(234-505)) [nM],"IC50 (UM-UC-9 engineered cells; Homo sapiens, UM-UC-9, 144 h) [nM]",IC50 (UM-UC-9 engineered cells) [nM],AC50 (His6-TEV-PPARγ-(234-505); listed as 114b) [nM],IC50 (UM-UC-9 engineered cells; listed as 114b) [nM]
"Cc1cc(-c2cc(C(=O)N3[C@@H]4CC[C@H]3C[C@H](C(=O)N[C@H]3CC[C@@](O)(C(F)(F)F)CC3)C4)n[nH]2)c2cn[nH]c2n1 [Example 315, (1R,3s,5S)—N-((1r,4R)-4-hydroxy-4-(trifluoromethyl)cyclohexyl)-8-(5-(6-methyl-1H-pyrazolo[3,4-b]pyridin-4-yl)-1H-pyrazole-3-carbonyl)-8-azabicyclo[3.2.1]octane-3-carboxamide]",863,> 10000,–,–,–
"(S)-4-(5-(2-chloro-5-fluoropyridin-4-yl)-1H-pyrazole-3-carbonyl)-N-((1r,4S)-4-hydroxy-4-(trifluoromethyl)cyclohexyl)-4-azaspiro[2.5]octane-7-carboxamide and (R)-4-(5-(2-chloro-5-fluoropyridin-4-yl)-1H-pyrazole-3-carbonyl)-N-((1r,4R)-4-hydroxy-4-(trifluoromethyl)cyclohexyl)-4-azaspiro[2.5]octane-7-carboxamide [Example 529]",10.6,–,34.2,–,–
"Cc1nccc(-c2cc(C(=O)N3[C@@H]4CC[C@H]3C[C@H](C(=O)N[C@H]3CC[C@@](O)(C(F)(F)F)CC3)C4)n[nH]2)c1C [Example 314, (1R,3s,5S)-8-(5-(2,3-dimethylpyridin-4-yl)-1H-pyrazole-3-carbonyl)-N-((1r,4R)-4-hydroxy-4-(trifluoromethyl)cyclohexyl)-8-azabicyclo[3.2.1]octane-3-carboxamide]",347,> 10000,–,–,–
"COc1cc(-c2nc(C(=O)N3[C@@H]4CC[C@H]3CC(C(=O)NC3CCC(O)(C(F)(F)F)CC3)C4)n[nH]2)c(F)cn1 (stereo partly drawn) [Example 305, (1R,3S,5S)-8-[5-(5-fluoro-2-methoxypyridin-4-yl)-1H-1,2,4-triazole-3-carbonyl]-N-[(1r,4r)-4-hydroxy-4-(trifluoromethyl)cyclohexyl]-8-azabicyclo[3.2.1]octane-3-carboxamide]",217,–,2270,–,–
"COc1cc(-c2cc(C(=O)N3CCC(C(=O)NCc4cn5cc(C)ccc5n4)CC3)n[nH]2)c(Cl)cn1 [Example 217, 1-(5-(5-chloro-2-methoxypyridin-4-yl)-1H-pyrazole-3-carbonyl)-N-((6-methylimidazo[1,2-a]pyridin-2-yl)methyl)piperidine-4-carboxamide]",309,3630,–,–,–
"COc1cc(-c2cc(C(=O)N3[C@@H]4CC[C@H]3C[C@H](C(=O)NCc3ccc5c(c3)c(F)nn5C)C4)n[nH]2)c(F)cn1 [Example 277, (1R,3s,5S)—N-((3-fluoro-1-methyl-1H-indazol-5-yl)methyl)-8-(5-(5-fluoro-2-methoxypyridin-4-yl)-1H-pyrazole-3-carbonyl)-8-azabicyclo[3.2.1]octane-3-carboxamide]",3.3,29,–,–,–
"(S)-4-(5-(5-fluoro-2-methoxypyridin-4-yl)-1H-pyrazole-3-carbonyl)-N-((1s,4R)-4-(hydroxymethyl)-4-(trifluoromethyl)cyclohexyl)-4-azaspiro[2.5]octane-7-carboxamide and (S)-4-(5-(5-fluoro-2-methoxypyridin-4-yl)-1H-pyrazole-3-carbonyl)-N-((1r,4S)-4-(hydroxymethyl)-4-(trifluoromethyl)cyclohexyl)-4-azaspiro[2.5]octane-7-carboxamide [Example 408]",6.3,–,7.2,–,–
"COc1cc(-c2cc(C(=O)N3CCC(C(=O)NC4CCC(C)CC4)CC3)n[nH]2)c(F)cn1 (single isomer, unassigned) [Example 114-B]",–,–,–,15.8,26.8
"CCc1cc(-c2cc(C(=O)N3CCC(C(=O)NCc4cccc(Cl)c4)CC3)n[nH]2)c(Cl)cn1 [Example 270, 1-[5-(5-chloro-2-ethylpyridin-4-yl)-1H-pyrazole-3-carbonyl]-N-[(3-chlorophenyl)methyl]piperidine-4-carboxamide]",23.4,306,–,–,–
